Series [1] in a line: Kinetic aqueous solubility. The class given is physicochemical.
Series [2] is described as follows: Liver microsome stability, mouse. The class given is in vitro ADME. Particulars: male, CD-1, mouse, liver microsomes, pH 7.4. Here is the method: Liver microsome stability assays were performed by BioDuro Inc. Human and mouse (CD-1 male) liver microsomes were used. […] Next, 50 μL of reaction buffer was added to solution and mixed via pipetting up and down 6 times. At each time point of 0, 30, and 60 min, an aliquot of 20 μL was removed from each tube. Liver microsomes (LM) working solution was prepared in 0.05 M phosphate reaction buffer (pH = 7.4) to a final concentration of 1.27 mg/mL. NADPH solution was prepared in 0.05 M phosphate buffer to afford a 5 mM buffer solution. […] After vortexing and incubating for 5 min (37°C), 50 μL of NADPH solution was added and mixed via pipetting. At each time point of 0, 5, 15, 30, and 60 min, an aliquot of 20 μL was removed from each tube. Next, 250 μL of quenching solution was aliquoted to quench the reaction, which was then vortexed for 1 min and placed on ice for 40 min. After centrifugation at 4,000 × g for 15 min, 100 μL of supernatant was transferred using a multichannel pipette to 0.65-mL tubes. Samples were diluted with MeOH: H2O (1:1) as necessary. Samples were analyzed by high-pressure liquid chromatography coupled to tandem mass spectrometry (LC/MS/MS) performed on a Sciex Applied Biosystems Qtrap 4000 triple-quadrupole mass spectrometer coupled to a Shimadzu HPLC system to quantify the remaining compound. Data were processed using Analyst software (version 1.4.2; Applied Biosystems Sciex). […] Metabolite identification on the microsomal extracts was performed using a Q-Exactive HRMS coupled with an Ultimate 3000 HPLC system and a Kinetix C18 2.1 × 50-mm 2.6-μm HPLC column.
Background: Microsomes from liver hold many membrane-bound enzymes, among them those of drug oxidation.

Series [3] can be described thus: Mouse pharmacokinetics of JSF-2659. The class given is in vivo. The following applies: oral administration in mice; data not shown.
In series [4] the test system is Neisseria gonorrhoeae strain H041. In words: Estradiol-treated mouse model of cervico-vaginal infection, strain H041. The class given is in vivo, mouse (BALB/c). Particulars: for percentage of mice colonized over 8 culture days after treatment: vs vehicle.
Series [5] has as its system N. gonorrhoeae (ATCC 700825). In words: Intravaginal infection model, ovariectomized BALB/c mice, strain ATCC 700825. The following applies: for killing effect relative to the baseline group: 26, 76 and 170 h after infection; for killing effect (bacterial counts in vaginal lavage): 26 h postinfection. The class given is in vivo, mouse (BALB/c).
Series [6] relates to S. aureus VRSA, VRS-2. The experiment in a line: Neutropenic murine thigh infection model. The following applies: 26 h after infection. The class given is in vivo, mouse (ICR).
Series [7] concerns C. difficile BAA-1805. The experiment in a line: Hamster C. difficile colitis model. The class given is in vivo, Golden Syrian hamster.
Series [8] has as its system E. coli. Also on record: method as in PMID 28483959, PMID 31315953. Particulars: cited from earlier work.
Series [9] relates to S. aureus. Particulars: organism not named in the sentence (context MRSA/S. aureus); cited from earlier work.
Series [10] concerns N. gonorrhoeae. Particulars: QC strain ATCC 49926; cited from earlier work.
Series [11] deals with MRSA. In words: MIC, in vitro susceptibility testing (CLSI). The class given is cell-based, Staphylococcus aureus.
Series [12] has as its system VISA. The experiment in a line: MIC, in vitro susceptibility testing (CLSI). The class given is cell-based, Staphylococcus aureus.
Series [13] has as its system MRSE. The experiment in a line: MIC, in vitro susceptibility testing (CLSI). The class given is cell-based, Staphylococcus epidermidis.
Series [14] has as its system C. difficile. The experiment in a line: MIC, toxigenic C. difficile panel (CLSI). Particulars: for MIC: Clostridioides difficile. The class given is cell-based, Clostridioides difficile.
The subject of series [15] is VRSA. Particulars: cited from earlier work.

Structures are written as SMILES. Values after ≈ are worked out from the molar mass of the structure shown. Values joined by “and” are separate entries in the source; they are usually repeats but may differ in a detail not shown here. Identical values can stand only once. Like-named read-outs stand apart in the source and are kept apart here.

As for `CNc1cc(F)cc2c1[nH]c1nc(Oc3cnc(C)nc3)nc(N3CCC4(CC3)CO[C@@H](COP(=O)(O)O)C4)c12` [JSF-2659], the “increase of solubility over the parent drug candidate” value in [1] (JSF-2659 vs JSF-2414) is reported as 764 fold. The solubility (kinetic) (in general, solubility judged after dilution from a stock solution rather than from solid) in series [1] (aqueous medium (not further specified)) was 440 µM (≈ 252 µg/mL). Besides, the microsomal CLint at 1 μM in series [2] (read-out: MLM Clint) is 0.5 µL/min/mg. Moreover, the half-life at 1 μM in series [2] (read-out: MLM t1/2) was 23.1 h. Besides, the “conversion by host phosphatases to JSF-2414” value in [3] is on record as over 99%. Further, the “percentage of mice colonized over 8 culture days after treatment” value in [4] (75 mg/kg TID (q 6 h) PO), in series [4] (250 mg/kg QD PO) and in [4] (250 mg/kg TID (q 6 h) PO) was “significant reduction in the percentage of mice colonized” in each case. Moreover, in series [4] (250 mg/kg TID PO, vs vehicle (P = 0.058)), the “average CFU/mL recovered after 48 h of treatment” value is given as “significantly reduced compared to the vehicle control”. Moreover, the “average CFU per mL of vaginal swab suspension over time” value in [4] (250 mg/kg TID PO, P = 0.004) was “significantly different than the vehicle control group”. Further, the “killing effect relative to the baseline group” value in series [5] (IM 75 mg/kg QD), in series [5] (IM 250 mg/kg QD), in [5] (PO 75 mg/kg TID), in series [5] (PO 250 mg/kg QD) and in [5] (PO 250 mg/kg TID) was over 3 log10 in each case. For the same compound, the “killing effect (bacterial counts in vaginal lavage)” value in [5] (IM 75 mg/kg QD, relative to control) is 3.51 log10; in series [5] (IM 250 mg/kg QD, relative to control) it was 3.39 log10; in series [5] (PO 75 mg/kg QD, relative to baseline group), 1 log10; in series [5] (PO 75 mg/kg TID, relative to control) it was 3.51 log10; in series [5] (PO 250 mg/kg QD, relative to control), 3.51 log10; in series [5] (PO 250 mg/kg TID, relative to control), 3.51 log10. The “reduction of burden to the limit of detection” value in [5] (dose-dependent oral administration) was ~ 4.5 log10. The “bacterial count reduction in thigh relative to vehicle control” value in series [6] (PO 100 mg/kg QD) is 0.95 log10; in series [6] (PO 100 mg/kg TID) it was 4.84 log10; in [6] (PO 250 mg/kg QD), 4.42 log10; in series [6] (PO 250 mg/kg TID, 250 mg/kg) it was 6.26 log10 and > 6.2 log10. The “survival, 14-day observation” value in series [7] (20 mg/kg PO BID for 5 days), in series [7] (100 mg/kg PO BID for 5 days) and in [7] (250 mg/kg PO BID for 5 days) was 100% throughout. In addition, the “body weight change during the 14-day observation period” value in series [7] (20, 100 and 250 mg/kg PO BID, relative to the positive controls) is “No significant loss of body weight”.

Regarding `O=c1ccc2ncc(=O)n3c2n1C[C@H]3CN1CCC(NCc2cc3c(cn2)OCCC3)CC1` [Gepotidacin], the minimal inhibitory concentration (MIC) (commonly the smallest concentration in the dilution series that meets the test's criterion for growth inhibition) in [8] was 4 µg/mL (≈ 8.92 µM). Moreover, the MIC90 (usually an inhibitory concentration at the 90% level, which refers to growth in some studies and to a panel of isolates in others) in series [9] is 0.5 µg/mL (≈ 1.11 µM). Moreover, the “modal MIC” value in [10] is 0.5 µg/mL.

As to `C[C@@H]1CN2c3c(cc4c(N5C(=O)OC[C@@H]5C)noc4c3F)CC3(C(=O)NC(=O)NC3=O)[C@H]2[C@H](C)O1` [zoliflodacin], the MIC in series [8] is 4 µg/mL (≈ 8.21 µM).

Take `CN[C@H](CC(C)C)C(=O)N[C@H]1C(=O)N[C@@H](CC(N)=O)C(=O)N[C@H]2C(=O)N[C@H]3C(=O)N[C@H](C(=O)N[C@H](C(=O)O)c4cc(O)cc(O)c4-c4cc3ccc4O)[C@H](O)c3ccc(c(Cl)c3)Oc3cc2cc(c3O[C@@H]2O[C@H](CO)[C@@H](O)[C@H](O)[C@H]2O[C@H]2C[C@](C)(N)[C@H](O)[C@H](C)O2)Oc2ccc(cc2Cl)[C@H]1O` [Van, vancomycin]: the MIC in series [11] was determined as 1.0 µg/mL (≈ 0.69 µM); in [11] (Staphylococcus aureus, MRSA), 0.5 µg/mL (≈ 0.345 µM); in series [13] (Staphylococcus epidermidis, MRSE), 0.5 µg/mL (≈ 0.345 µM); in [14] it was 1 µg/mL (≈ 0.69 µM); in [14] (BAA1805), 0.5 µg/mL (≈ 0.345 µM); in [14] (BAA1808), 0.5 µg/mL (≈ 0.345 µM). The MIC in series [14] (BAA1874) is 0.5 µg/mL (≈ 0.345 µM); in [14] (BAA1875), 0.5 µg/mL (≈ 0.345 µM); in series [15], over 64 µg/mL. In addition, the MIC range in [11] lay in the range of 0.5 to 1 µg/mL; in series [12], 3.125 to 12.5 µg/mL; in [13], 0.5 to 1 µg/mL; in [14] it was 0.5 to 1 µg/mL. The “bacterial count reduction in thigh” value in series [6] (SC 100 mg/kg TID) came to 2.09 log10. This compound also returned a survival in series [7] (20 mg/kg PO BID for 5 days) of 100%.

The record behind these values is PMC9487510, “A Novel Oral GyrB/ParE Dual Binding Inhibitor Effective against Multidrug-Resistant Neisseria gonorrhoeae and Other High-Threat Pathogens” (Antimicrobial Agents and Chemotherapy, 2022).
